Consider one compound from patent US20230414638A1, “S[…] COMPOUNDS AS AMPK ACTIVATOR AND USES THEREOF” (SOCIETE DES PRODUITS NESTLE S.A., priority 2020, published 2023).

The structures appear in SMILES notation. “Also recorded” adds a separate entry of the source.

One test has as its system AMPK β1 WT. Briefly: pACC HTRF assay in AMPKβ1/β2 double knockout U-2 OS cells stably expressing β1 WT. To be noted: AMPKβ1β2 double knockout cells stably expressing β1 WT, varying concentrations, 30 mins at 37 C. Type of test: cell-based, human. The source says: (§1) A MPKβ1/β2 double knockout U-2 OS Flp-In™ T-Rex™ cell lines were generated by Horizon Discovery (Cambridge, UK). Cells were genotyped and analysed by western blotting to confirm that there was a complete knockout of AMPKβ1/β2. We took these AMPKβ1/β2 double knockout cells, and re-introduced the expression of human β1 wild-type (WT) or a β1 Serine 108 to alanine mutation (S108A). This was achieved using the Flp-In™ system (Invitrogen) present in this cell line and stable cells expressing β1 WT or a β1 S108A mutant were generated according to the manufacturers' protocols. Re-expression of the β1 subunit was confirmed by western blot analysis.
(§2) Cells stably expressing β1 WT or a β1 S108A mutant were treated with varying concentrations of Compound 1 and subjected to the pACC HTRF (Cisbio) assay to determine the level of phosphorylation of the AMPK substrate, ACC, in cell lysates, as in example 1.
We took AMPKβ1/β2 double knockout cells, and re-introduced the expression of human […] or β2 WT isoforms. […] Cells stably expressing β1 WT or β2 were treated with varying concentrations of compound 1 and subjected to the pACC HTRF (Cisbio) assay to determine the level of phosphorylation of the AMPK substrate, ACC, in cell lysates, as in example 1. […]
For orientation: In TR-FRET formats the signal depends on donor and acceptor labels being close together.

Test [1] deals with β2-containing AMPK complexes. Description: pACC HTRF assay in AMPKβ1/β2 double knockout U-2 OS cells stably expressing β2 WT. Type of test: cell-based, human. To be noted: AMPKβ1β2 double knockout cells stably expressing β2 WT, varying concentrations, 30 mins at 37 C. The method, then: We took AMPKβ1/β2 double knockout cells, and re-introduced the expression of human […] or β2 WT isoforms. […] Cells stably expressing β1 WT or β2 were treated with varying concentrations of compound 1 and subjected to the pACC HTRF (Cisbio) assay to determine the level of phosphorylation of the AMPK substrate, ACC, in cell lysates, as in example 1. […] This activation profile is characteristic of activators that bind to the ADaM site and consistent with previous studies showing that ADaM-site activators have poorer activation of β2-containing complexes in vitro and in cells.

In test [2] the test system is ADaM-binding site AMPK mutant (β1 S108A). Description: pACC HTRF assay in AMPKβ1/β2 double knockout U-2 OS cells stably expressing β1 S108A mutant. Type of test: cell-based, human. To be noted: AMPKβ1β2 double knockout cells stably expressing β1 S108A mutant, varying concentrations, 30 mins at 37 C.
Excerpt: as §1, §2

The subject of a further test is AMPK. Briefly: pACC HTRF assay (Cisbio) in U-2 OS Flp-In T-REx cells. Conditions: varying concentrations, 30 mins at 37 C. Type of test: cell-based. Here is the method: U-2 OS Flp-In T-REx cells were seeded at 50 K in a 96-well plate and left overnight at 37 C in DMEM GlutaMAX (Thermo Fisher Scientific) supplemented with 10% (vol/vol) FBS and 100 U/ml penicillin G, and 100 μg/ml streptomycin. Cells were treated for 30 mins with varying concentrations of Compound 1 in media lacking FBS and then cells were lysed in 50 μl of Cisbio lysis buffer #1 supplemented with blocking solution as per the manufacturer's protocol (Cisbio). Compound 1 is 2,4-dihydroxy-3-[(1R,6R)-3-methyl-6-prop-1-en-2-ylcyclohex-2-en-1-yl]-6-pentylbenzoic acid, also known as Cannabidiolic acid, CAS number: 1244-58-2.
Cells were lysed for 30 mins at room temperature before 16 μl of lysate was incubated with 4 μl of the HTRF antibodies (1:40 dilution of the acceptor and donor (p)ACC antibodies, as per the manufacturers protocol). Lysates were incubated overnight with the antibodies before 665 nm/620 nm ratio was determined using a MolecularDevices i3 plate reader (with a HTRF cartridge add-on).

Test [3] deals with primary mouse hepatocytes. Description: Lipogenesis ([1-14C]-acetate incorporation into fatty acids) in primary hepatocytes. Conditions: varying concentrations, 1 h at 37 C. The test is classed as cell-based. The method, then: Hepatocyte isolation: The liver was first perfused with 50 ml perfusion buffer (Krebs-Hepes buffer with […] EDTA), followed with 50 ml collagenase A buffer (Krebs-Hepes buffer with 5 mM CaCl2) and 0.5 mg/ml collagenase). After passage through a 100 μm mesh, the cell solution was washed several times with cold media and finally the cell culture pellet was resuspended in culture medium (medium 199 (M199)+GlutaMAX, 100 U/ml penicillin G, and 100 μg/ml streptomycin, 0.1% (wt/vol) BSA, 10% FCS, 10 nM insulin, 200 nM triiodothyronine and 500 nM dexamethasone). Hepatocytes were left to attach (3-4 h) and cultured overnight in M199 supplemented with antibiotics and 100 nM dexamethasone. Cells were used for experiments the following morning.
For lipogenesis measurements in primary hepatocytes, cells were seeded at 600 K cells per well in a 6-well plate overnight. Media was replaced with fresh M199 media alone for 2 hours prior to incubation with varying concentrations of compound 1 for 1 h at 37 C, in the presence of [1-14C]-acetate. The incorporation of [14C] into fatty acids was determined in the lower organic layer after separation from the aqueous phase.

Take `C=C(C)[C@@H]1CCC(C)=C[C@H]1c1c(O)cc(CCCCC)c(C(=O)O)c1O` [Compound 1, 2,4-dihydroxy-3-[(1R,6R)-3-methyl-6-prop-1-en-2-ylcyclohex-2-en-1-yl]-6-pentylbenzoic acid]: the “Phosphorylation of ACC (fold increase in activation)” value in the test with AMPK β1 WT was “able to dose-dependently increase pACC”; in test [1] it was “impaired activation of AMPK; also recorded: impaired ability of compound 1 to increase pACC”; in test [2], “did not activate AMPK; also recorded: not able to increase pACC”; with AMPK it was “increased the phosphorylation of the AMPK substrate, acetyl-CoA carboxylase (ACC); also recorded: increases the phosphorylation of the AMPK substrate, ACC, in a dose-dependent manner”. The “Lipogenesis (percentage compared to the no treatment control)” value in test [3] is on record as “dose-dependent inhibition of lipogenesis; also recorded: able to inhibit lipogenesis in a dose-dependent manner”.
